According to patent US20250276069A1, “HETEROBIFUNCTIONAL COMPOSITIONS FOR TARGETED PROTEIN DEGRADATION AND METHODS FOR THEIR USE” (THE SCRIPPS RESEARCH INSTITUTE, priority 2021, published 2025):
“Also recorded” adds a separate entry of the source.

Tested on: HCC1806 cells
Test: TMT MS quantitative proteomics of live cells treated with FragTAC probes (HCC1806)
Format: cell-based, Homo Sapiens
Settings: for Downregulated proteins targeted by FragTAC probes (protein listed for the probe code): cell line not given; for Proteins targeted (downregulated) by FragTAC probe: value = downregulated protein
Description: Mammalian cell culture: MDA-MB-231 cells (ATCC) were maintained in DMEM supplemented with 10% (v/v) fetal bovine serum (FBS), 1% (v/v) penicillin/streptomycin, and 2 mM glutamine. HCC1806 cells (ATCC) were maintained in RPMI supplemented with 10% (v/v) fetal bovine serum (FBS), 1% (v/v) penicillin/streptomycin, and 2 mM glutamine. All cell lines were grown at 37° C. in a humidified 5% CO2 atmosphere.
Treatment of Live Cells with FragTAC Probes: Separate 6 cm (for gel-based analyses) or 10 cm (for MS-based analyses) dishes of MDA-MB-231 cells or HCC1806 cells were grown to 80-95% confluency with DMEM media and RPMI media respectively. The growth medium was aspirated, and the cells were washed with Dulbecco's phosphate buffered saline (DPBS). The cells were incubated with serum-free media containing fragment probes (200 μM) or control probes (200 μM) for 6 hours at 37° C. under a 5% CO2 atmosphere. The cultures were scraped, washed with cold DPBS, and collected into 15 mL centrifuge tubes, then transferred to 1.5 mL Eppendorf tubes. The cell suspensions were centrifuged (1,400 g, 3 min) and the pellets were stored at −80° C. until the next stage of processing.
Sample preparation for TMT MS Quantitative Proteomics: For treatment of cell lysates, cells were collected, cell pellets were resuspended in 100 μL DPBS containing 1× Halt protease inhibitor cocktail, and lysed by sonication (15 ms on, 40 ms off, 15% amplitude, 1 s total). Protein concentrations were normalized (2 mg/mL in 100 μL with cold DPBS) using the Lowry Protein Assay (Pierce). Urea (48 mg) was weighed for each sample in 2 mL LoBind Eppendorf tubes and cell lysates (100 μL=200 μg) were added (final urea concentration=8 M). Pellets were resuspended in a freshly prepared 1:1 solution (50 μL) TCEP (200 mM in DPBS) and K2CO3 (600 mM in DPBS) and incubated (30 min, 37° C.) while shaking. After reaction, a solution of freshly prepared iodoacetamide (70 μL, 400 mM in DPBS) was added and incubated for 30 min at room temperature while protected from light. After reaction, 1.8 mL of cold 3:1:2 MeOH/CHCl3/H2O solution was added to each tube, and the samples were centrifuged (10,000×g, 10 min, 4° C.), forming a disc. The supernatant was carefully removed, MeOH (600 μL) was added, samples were centrifuged as previously described and the supernatant was removed. Cell pellets were resuspended in TEAB (160 μL, 100 mM, pH 8.5) and sonicated as described previously. Endoproteinase LysC (20 μL, ½ vial, 10 μg dissolved in 220 μL of 100 mM TEAB pH 8.5) was added to each and incubated at 37° C. for 2 h with shaking. Sequencing-grade modified porcine trypsin (20 μL, 1 vial, 20 μg dissolved in 220 μL of 100 mM TEAB pH 8.5), a solution of Protease Max (2 μL, 1% (w/v) in 100 mM TEAB pH 8.5) and a solution of CaCl2) (2 μL, 100 mM) were added to the samples and incubated at 37° C. overnight (14 h) with shaking. The digest was separated by centrifugation (12,000×g, 10 min, 4° C.). Peptide concentration was determined using Pierce Quantitative Fluorometric Peptide Assay Kit (Thermo Fisher Scientific, 23290) according to manufacturer's instructions. MS-grade acetonitrile (12.5 μL) was added to each and samples were labeled with respective TMT 10 plex isotope (8 μL, 20 μg/μL) for 1 h with occasional vortexing at RT. To quench, hydroxylamine (3 μL, 5% v/v) was added to each sample, vortexed, and incubated for 15 min at RT. Formic acid (5 μL) was added to each tube to acidify and the samples were dried under vacuum centrifugation. The samples were combined by redissolving the contents of one tube in a solution of trifluoroacetic acid (TFA, 400 μL, 0.1% in water) and transferred into each sample until all samples were redissolved. The stepwise process was repeated with formic acid (Buffer A, 200 μL, 0.1% in water) for a final volume of 600 μL. […]

[1] = TMT proteomics, targets with 2 unique peptides or more and depleted 2-fold or more relative to DMSO control (P value <0.05)
[2] = protein with 2 unique peptides or more, depleted 2-fold or more relative to DMSO control (P value <0.05)

Row | Structure (SMILES) | Downregulated proteins targeted by FragTAC probes (protein listed for the probe code) [1] | Proteins targeted (downregulated) by FragTAC probe [2] | Proteins targeted (downregulated) by FragTAC probe [1]
1 | Cc1ncsc1-c1ccc(CNC(=O)[C@@H]2C[C@@H](O)CN2C(=O)[C@@H](NC(=O)CCOCCOCCOCCC(=O)N2CCCC2c2noc(Cc3ccc(Br)cc3)n2)C(C)(C)C)cc1 (stereo partly drawn) [IF-064, (2S,4R)-1-((2S)-16-(2-(5-(4-bromobenzyl)-1,2,4-oxadiazol-3-yl)pyrrolidin-1-yl)-2-(tert-butyl)-4,16-dioxo-7,10,13-trioxa-3-azahexadecanoyl)-4-hydroxy-N-(4-(4-methylthiazol-5-yl)benzyl)pyrrolidine-2-carboxamide] | GHITM | – | –
2 | Cc1ncsc1-c1ccc(CNC(=O)[C@@H]2C[C@@H](O)CN2C(=O)[C@@H](NC(=O)CCOCCC(=O)N2CCN(C(c3ccccc3)c3ccccc3)CC2)C(C)(C)C)cc1 [IF-049, (2S,4R)-1-((S)-2-(3-(3-(4-benzhydrylpiperazin-1-yl)-3-oxopropoxy)propanamido)-3,3-dimethylbutanoyl)-4-hydroxy-N-(4-(4-methylthiazol-5-yl)benzyl)pyrrolidine-2-carboxamide] | – | YIPF3; also recorded: YLPM1; also recorded: ZNF185 | –
3 | Cc1ncsc1-c1ccc(CNC(=O)[C@@H]2C[C@@H](O)CN2C(=O)[C@@H](NC(=O)CCOCCOCCOCCC(=O)NC2=NC(c3ccccc3)c3ccccc3NC2=O)C(C)(C)C)cc1 (stereo partly drawn) [IF-065, (2S,4R)-1-((2S)-2-(tert-butyl)-4,16-dioxo-16-((2-oxo-5-phenyl-2,5-dihydro-1H-benzo[e][1,4]diazepin-3-yl)amino)-7,10,13-trioxa-3-azahexadecanoyl)-4-hydroxy-N-(4-(4-methylthiazol-5-yl)benzyl)pyrrolidine-2-carboxamide] | BRD2 | – | TMBIM6
4 | CCn1c2ccccc2c2ccc(CN(C(=O)CCOCCOCCOCCC(=O)N[C@H](C(=O)N3C[C@H](O)C[C@H]3C(=O)NCc3ccc(-c4scnc4C)cc3)C(C)(C)C)C3CCCC3)cc21 [IF-062, (2S,4R)-1-((S)-17-(tert-butyl)-2-cyclopentyl-1-(9-ethyl-9H-carbazol-2-yl)-3,15-dioxo-6,9,12-trioxa-2,16-diazaoctadecan-18-oyl)-4-hydroxy-N-(4-(4-methylthiazol-5-yl)benzyl)pyrrolidine-2-carboxamide] | GHITM | – | –
5 | Cc1ncsc1-c1ccc(CNC(=O)[C@@H]2C[C@@H](O)CN2C(=O)[C@@H](NC(=O)CCOCCOCCC(=O)NCCc2ccc3c(c2)NC(=O)CCC3)C(C)(C)C)cc1 [LPC034, (2S,4R)-1-((S)-2-(tert-butyl)-4,13-dioxo-16-(2-oxo-2,3,4,5-tetrahydro-1H-benzo[b]azepin-8-yl)-7,10-dioxa-3,14-diazahexadecanoyl)-4-hydroxy-N-(4-(4-methylthiazol-5-yl)benzyl)pyrrolidine-2-carboxamide] | KRT10 and KRT2 | – | –
6 | Cc1ccc(S(=O)(=O)N2CCN(C(=O)CCCCC(=O)N[C@H](C(=O)N3C[C@H](O)C[C@H]3C(=O)NCc3ccc(-c4scnc4C)cc3)C(C)(C)C)CC2)cc1 [IF-080, (2S,4R)-1-((S)-3,3-dimethyl-2-(6-oxo-6-(4-tosylpiperazin-1-yl)hexanamido)butanoyl)-4-hydroxy-N-(4-(4-methylthiazol-5-yl)benzyl)pyrrolidine-2-carboxamide] | CTSZ and INCENP and KIF20A and KIF22 and ANLN | ZBTB11 | PRC1 and RACGAP1 and TPX2 and TXNIP and UHRF1
7 | Cc1ncsc1-c1ccc(CNC(=O)[C@@H]2C[C@@H](O)CN2C(=O)[C@@H](NC(=O)CCOCCOCCOCCC(=O)N2CCN(C(c3ccccc3)c3ccccc3)C[C@@H]2c2ccccc2)C(C)(C)C)cc1 [CMC-6-123, (2S,4R)-1-((S)-16-((S)-4-benzhydryl-2-phenylpiperazin-1-yl)-2-(tert-butyl)-4,16-dioxo-7,10,13-trioxa-3-azahexadecanoyl)-4-hydroxy-N-(4-(4-methylthiazol-5-yl)benzyl)pyrrolidine-2-carboxamide] | – | ZBTB1; also recorded: ZNF217 | –
8 | Cc1ncsc1-c1ccc(CNC(=O)[C@@H]2C[C@@H](O)CN2C(=O)[C@@H](NC(=O)CCOCCOCCC(=O)N2CCN(C(c3ccccc3)c3ccccc3)CC2)C(C)(C)C)cc1 [LPC020, (2S,4R)-1-((S)-2-(3-(2-(3-(4-benzhydrylpiperazin-1-yl)-3-oxopropoxy)ethoxy)propanamido)-3,3-dimethylbutanoyl)-4-hydroxy-N-(4-(4-methylthiazol-5-yl)benzyl)pyrrolidine-2-carboxamide] | – | YIPF3 and ZC3H13 and ZC3HC1 and ZFR and ZMYM4 and ZNF638 and ZNF830 | –
9 | Cc1ncsc1-c1ccc(CNC(=O)[C@@H]2C[C@@H](O)CN2C(=O)[C@@H](NC(=O)CCOCCOCCOCCC(=O)NCCc2cn(Cc3ccccc3)c3ccccc23)C(C)(C)C)cc1 [IF-063, (2S,4R)-1-((S)-19-(1-benzyl-1H-indol-3-yl)-2-(tert-butyl)-4,16-dioxo-7,10,13-trioxa-3,17-diazanonadecanoyl)-4-hydroxy-N-(4-(4-methylthiazol-5-yl)benzyl)pyrrolidine-2-carboxamide] | – | – | TMBIM6
10 | Cc1ncsc1-c1ccc(CNC(=O)[C@@H]2C[C@@H](O)CN2C(=O)[C@@H](NC(=O)CCOCCOCCC(=O)NCCC(c2ccccc2)c2ccccc2)C(C)(C)C)cc1 [LPC022, (2S,4R)-1-((S)-2-(tert-butyl)-4,13-dioxo-17,17-diphenyl-7,10-dioxa-3,14-diazaheptadecanoyl)-4-hydroxy-N-(4-(4-methylthiazol-5-yl)benzyl)pyrrolidine-2-carboxamide] | – | ZFR and ZMYM4 | –
11 | Cc1ncsc1-c1ccc(CNC(=O)[C@@H]2C[C@@H](O)CN2C(=O)[C@@H](NC(=O)CCOCCOCCOCCNC(=O)c2[nH]c3ccc(Cl)cc3c2-c2ccccc2)C(C)(C)C)cc1 [IF-073, 5-chloro-N-((S)-14-((2S,4R)-4-hydroxy-2-((4-(4-methylthiazol-5-yl)benzyl)carbamoyl)pyrrolidine-1-carbonyl)-15,15-dimethyl-12-oxo-3,6,9-trioxa-13-azahexadecyl)-3-phenyl-1H-indole-2-carboxamide] | CYP1B1 and FAM177A1 and GHITM and LGMN | – | NPC2 and PCLAF and RPLP1 and SETX and TXNIP
12 | Cc1ncsc1-c1ccc(CNC(=O)[C@@H]2C[C@@H](O)CN2C(=O)[C@@H](NC(=O)CCOCCOCCOCCC(=O)N2CCN(CC3=C(c4ccc(Cl)cc4)CC(C)(C)CC3)CC2)C(C)(C)C)cc1 [IF-060, (2S,4R)-1-((S)-2-(tert-butyl)-16-(4-((4′-chloro-5,5-dimethyl-3,4,5,6-tetrahydro-[1,1′-biphenyl]-2-yl)methyl)piperazin-1-yl)-4,16-dioxo-7,10,13-trioxa-3-azahexadecanoyl)-4-hydroxy-N-(4-(4-methylthiazol-5-yl)benzyl)pyrrolidine-2-carboxamide] | GHITM | – | –
